Results taken from article PMC7697705, “Design, Synthesis and Biological Evaluation of (2′,5′ and 3′5′-Linked) cGAMP Analogs that Activate Stimulator of Interferon Genes (STING)” (Molecules, 2020).
Read-outs that look alike come from different tables or passages of the source.

Experiments:
human STING = molecular target: T1, human STING (Homo sapiens, UniProt Q86WV6); test: surface plasmon resonance (SPR)-based hSTING binding assay; conditions: for kon: read-out: Ka; for Kd: KD = Kd/Ka
T1 construct: N-terminal cysteine (thiol coupling handle)
T1 sequence (Q86WV6 whole entry): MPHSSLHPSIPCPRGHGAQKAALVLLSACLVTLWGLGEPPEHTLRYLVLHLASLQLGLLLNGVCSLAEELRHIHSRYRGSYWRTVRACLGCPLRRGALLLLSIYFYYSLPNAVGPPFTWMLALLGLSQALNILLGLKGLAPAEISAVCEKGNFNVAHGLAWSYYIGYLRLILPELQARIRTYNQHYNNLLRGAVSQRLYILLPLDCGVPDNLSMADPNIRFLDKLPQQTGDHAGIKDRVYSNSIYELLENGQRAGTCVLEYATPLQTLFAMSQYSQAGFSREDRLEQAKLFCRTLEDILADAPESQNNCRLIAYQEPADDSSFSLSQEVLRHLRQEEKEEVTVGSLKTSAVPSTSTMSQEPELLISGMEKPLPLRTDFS
From the text: Direct measurement of affinity constants provide assistance in pharmacokinetic and pharmacodynamic studies. In this study, we evaluated the binding affinities between human STING and the synthesized CNDs by the surface plasmon resonance (SPR)-based assay, which loaded minuscule amounts of STING protein on a biosensor chip, and free-labeled samples were directly detected in short measurement times.
hSTING was firstly immobilized on a CM5 sensor chip via a N-terminal cysteine thiol group, without altering conformation or binding activity. […] Kinetic parameters generally give both an aggregation constant (ka) and a disaggregation constant (kd), from which the equilibrium dissociation constant KD can be calculated by KD = Kd/Ka.
SPR system was primed using the manufacturer’s HEPES-buffered saline at 25 °C. CM5 chips were warmed to room temperature on the bench before being added to the system. SPR surfaces were cleaned and conditioned (separate injections of 50 mM NaOH, 1 M NaCl, 0.1% SDS and 10 mM HCl, each for 60 s at 10 μL/min) prior to normalization using the manufacturer’s 70% glycerol solution (GE Healthcare). STING was prepared at 100 μg/mL in SPR running buffer with no DMSO and injected twice onto channel 2 for 600 s at 5 μL/min.
Cyclic dinucleotides were prepared to 1-mM stocks in SPR running buffer. A 12-concentrations dilution series, including a blank containing no substrate, were made and diluted in a 96-well polypropylene Greiner plate. Plates were spun and then placed at 4 °C until experimentation. Experiments were performed at 60 μL/min with data collected every 0.1s.

THP-1 cells = test: IFN-β production in THP-1 cells by ELISA; conditions: 1 μM, 18 h
Procedure: The IFN-β levels in the cell culture supernatants were measured using the ELISA kits (Meimian Biotechnology, Jiangsu, China), according to the manufacturer’s instructions.

[1] = SPR, hSTING immobilized on CM5 chip, 25 °C

| Compound | dissociation rate constant koff (human STING; [1]) | kon (human STING; [1]) | Kd (human STING; SPR) | production of IFN-β (ELISA) (THP-1 cells) | kon (human STING) |
| --- | --- | --- | --- | --- | --- |
| Cc1cn([C@@H]2O[C@@H]3COP(=O)(O)O[C@@H]4[C@H](O)[C@@H](COP(=O)(O)O[C@H]3[C@H]2O)O[C@H]4n2cnc3c(=O)[nH]c(N)nc32)c(=O)[nH]c1=O [Compound 8a, 2′,3′-cyclic-guanosine-5-methyluridine] | 0.002649 s⁻¹ | 349 M⁻¹ s⁻¹ | 7.58 µM |  |  |
| Cc1cn([C@@H]2O[C@@H]3COP(O)(=S)O[C@@H]4[C@H](O)[C@@H](COP(O)(=S)O[C@H]3[C@H]2O)O[C@H]4n2cnc3c(=O)[nH]c(N)nc32)c(=O)[nH]c1=O (stereo partly shown) [Compound 8b, 2′,3′-cyclic-guanosine(PS)-5-methyluridine(PS)] | 0.0001339 s⁻¹ |  |  | more IFN-β than the corresponding phosphodiester analogs | 233 M⁻¹ s⁻¹ |
| Cc1cn(C2OC3COP(=O)(O)OC4C(O)C(COP(=O)(O)OC3C2O)OC4n2cnc3c(=O)[nH]c(N)nc32)c(=O)nc1N (stereo not shown) [Compound 8c, 2′,3′-cyclic-guanosine-5-methylcytidine] | 1.397e-05 s⁻¹ | 152 M⁻¹ s⁻¹ | 0.092 µM |  |  |
| Cc1cn([C@@H]2O[C@@H]3COP(O)(=S)O[C@H]4[C@@H](O)[C@H](n5cnc6c(N)ncnc65)O[C@@H]4COP(O)(=S)O[C@@H]2[C@@H]3O)c(=O)[nH]c1=O (stereo partly shown) [Compound 12b, 2′,3′-cyclic-5-methyluridine(PS)-adenosine(PS)] | 0.0009865 s⁻¹ | 289 M⁻¹ s⁻¹ | 3.41 µM | more IFN-β than the corresponding phosphodiester analogs |  |

Now from value to compound, other results behind:

| dissociation rate constant koff (human STING; [1]) | kon (human STING; [1]) | Kd (human STING; SPR) | Compound | production of IFN-β (ELISA) (THP-1 cells) | kon (human STING) |
| --- | --- | --- | --- | --- | --- |
| 0.002431 s⁻¹ | 208 M⁻¹ s⁻¹ | 11.7 µM | Cc1cn([C@@H]2O[C@@H]3COP(=O)(O)O[C@H]4[C@@H](O)[C@H](n5cnc6c(N)ncnc65)O[C@@H]4COP(=O)(O)O[C@@H]2[C@@H]3O)c(=O)[nH]c1=O [Compound 12a, 2′,3′-cyclic-5-methyluridine-adenosine] |  |  |
| 0.0007331 s⁻¹ | 198 M⁻¹ s⁻¹ | 3.7 µM | Cc1cn([C@@H]2O[C@@H]3COP(=O)(O)O[C@H]4[C@@H](O)[C@H](n5cnc6c(N)ncnc65)O[C@@H]4COP(=O)(O)O[C@@H]2[C@@H]3O)c(=O)nc1N [Compound 12c, 2′,3′-cyclic-5-methylcytidine-adenosine] |  |  |
